# Patent publication US7683055B2, “Lanthionine-related compounds for the treatment of inflammatory diseases” (Oklahoma Medical Research Foundation, priority 2006, dated 2010)
# Columns and labels:
# [1] = tested on: EOC-20 microglia; test: TNFα-stimulated nitrite production in EOC-20 microglia (Griess assay); type: cell-based, mouse
# Procedure: (§1) Mouse EOC-20 microglia (American Tissue Type Collection, Gaithersville Md. USA) (Hensley et al., 2003; Walker et al., 1995) were grown in DMEM containing 20% L929 fibroblast-supplemented medium. Nitrite production by cytokine stimulated microglia was measured in cell culture medium using the Griess diazotization reaction as previously reported (Hensley et al., 2003; West et al., 2004).
# The efficacy of (R)-LKE1 and (R)-LK as inhibitors of microglial cell activation in response to pro-inflammatory cytokines is shown in FIGS. 1A & 1B. EOC-20 murine microglial cells were pretreated 30 minutes with test compounds (e.g. (R)-LK or (R)-LKE1) dissolved in DMSO and diluted 1:200 into cell culture medium; or with DMSO vehicle only. Cells were then challenged with cytokine and allowed to incubate undisturbed in the cell culture incubator for 24 h prior to Griess assay. The lanthionine ketimine ester in this case is the structure shown above as (R)-LKE1. After drug treatment cells were then stimulated with 40 ng/mL recombinant murine tumor necrosis factor alpha (TNF α) plus 50U/mL interferon gamma (IFNγ). Nitrite (NO2^−) was measured in the cell culture medium 24 hours later, as an index of nitric oxide production. Cell viability was then assayed in the same cultures using a commercially available tetrazolium reduction assay (Promega OneStep™; Promega, Gaithersburg Md.). Cell culture methods were those published by the inventor (Hensley et al., 2003; West et al., 2004).
# In a EOC-20 microglial assay the cells were stimulated with TNFα in the presence or absence of 100 microM (R)- or (S)-LK, and nitrite was measured 24 h later, the net suppression of nitrite was 13% by (S)-LK and 15% by (R)-LK.
# The reduced lanthionine ketimine (i.e., TMDCA) was also tested against TNFα-stimulated nitrite production in the EOC-20 screen.
# [2] = tested on: human PB monocytes; test: intracellular TNFα in human peripheral blood monocytes by flow cytometry; type: cell-based
# Description: Identification of TNFα positive monocytes in peripheral blood by flow cytometry: PB monocytes expressing TNF in response to LPS or PG can be identified and counted using flow cytometry with fluorescent antibodies to stain TNFα. To identify the percentage of monocytes expressing TNFα, PB was stimulated with LPS or PG, stained for surface markers to distinguish monocytes from other leukocytes, and stained for intracellular TNFα to identify monocytes expressing TNFα. The percentage of monocytes positive for TNFα was compared among samples stimulated with LPS, PG, with and without pretreatment with (R)-LKE1, and non-stimulated samples.
# The fluorescent antibodies used to identify monocytes surface markers were anti-human CD14-phycoerythrin (PE) and andtiCD16b-fluorescein isothyocyanate (FITC), based on staining intensity for each marker. Monocytes are positive for CD14 and negative for CD16b. This method of separating monocytes from neutrophils was confirmed by sorting cells based on CD14/CD16b intensity, preparing slides, staining with May-Grunwald Giemsa and confirming by morphology.
# For analysis of CD14 positive, CD16b negative cells we used dot plots. We first excluded lymphocytes from the analysis by their forward scatter (FSC) and side scatter (SSC) properties, drawing a monocyte/neutrophil gate to exclude lymphocytes (not shown). We then identified CD14+, (y-axis) CD16b− (x-axis) cells by comparison with an unstained sample.
# A third dye, PE-Cye7 was used for intracellular cytokine staining of TNFα. The TNFα positive monocytes were identified on a second dot plot of SSC vs. TNFα PE-Cye7 for monocytes only. Cells were counted as positive for TNFα expression if the intensity of PE-Cye7 was greater than in the non-stimulated control. The percent of TNFα positive monocytes was calculated using number positive/total number of monocytes.
# PB, heparinized, was diluted 1:3 with DMEM. Diluted blood was placed in 1.0 ml aliquots into wells of a non tissue culture plate. PB was pre-incubated at 37° C. for one hour with LKE (1 mM) or the diluent DMSO (10 μl). […]
# [3] = tested on: EOC-20 microglial cells; test: LPS-stimulated nitrite production in EOC-20 microglia; type: cell-based, mouse
# Procedure: In some embodiments, the compounds of the invention function is a cell-type specific, stimulus-specific, or condition-specific fashion. […] In contrast, when EOC-20 cells or RAW264.7 macrophages were stimulated with bacterial lipopolysaccharide (LPS; E. coli serotype 0127:B8) for 24-48 h and nitrite and cell viability were assessed. LKE inhibited cytokine-induced nitrite accumulation with a similar efficacy in both cell types (see FIGS. 9A & 9B).
# as §1
# [4] = tested on: C6 glioma cells; test: C6 glioma cells implanted in rat neocortex; type: in vivo, Sprague-Dawley rats; settings: 100 mg/day, 7 days/week from implantation
# Procedure: FIG. 16. […] 100,000 C6 glioma cells were implanted in the neocortex of adult male Sprague-Dawley rats. The test group was administered (R)-LKE1 in saline 100 mg/day at each of 7 days/week starting the day of implantation.
smiles,measurement,setting,value
CCOC(=O)[C@@H]1CSCC(C(=O)O)=N1 [(R)-LKE1],potency at suppressing cytokine activation relative to unesterified lanthionine ketimine,[1]; FIG. 1A,statistically significantly more potent
same,inhibition of nitrite production,[1]; TNFα-stimulated EOC-20 microglia,inhibited nitrite production
same,percent monocytes staining positively for TNFα,"[2]; 1 mM pre-incubation, PG 10 ug/ml",0.76%
same,percent monocytes staining positively for TNFα,"[2]; 1 mM pre-incubation, Ultra Pure LPS 1 μg/ml",25.9%
same,percent monocytes staining positively for TNFα,"[2]; 1 mM, no stimulus",0.96%
same,cytotoxicity (cell viability),"[3]; EOC-20 cells or RAW264.7 macrophages, LPS 24-48 h",No cytotoxicity was observed
same,inhibition of LPS-stimulated nitric oxide production,"[3]; EOC-20 microglial cells, LPS",inhibited LPS stimulated nitric oxide production
same,tumor cell proliferation,[4],inhibits tumor cell proliferation
